{
  "source": "patent US20230310390A1",
  "about": "“INHIBITORS OF SHORT-CHAIN DEHYDROGENASE ACTIVITY FOR TREATING NEURODEGENERATION” (CASE WESTERN RESERVE UNIVERSITY, priority 2020, published 2023)",
  "type_in_all_cases": "in vivo",
  "key": {"15-PGDH [1]": {"target": "T1, 15-PGDH (Mus musculus, UniProt Q8VCC1)", "T1 construct": "brain tissue was dissected 3 weeks later for biochemical determination of 15-PGDH enzymatic activity; from tissue; host or cells: mouse brain (forebrain after TBI; whole brain of 5xFAD and WT littermates)", "T1 sequence (Q8VCC1 1-269)": "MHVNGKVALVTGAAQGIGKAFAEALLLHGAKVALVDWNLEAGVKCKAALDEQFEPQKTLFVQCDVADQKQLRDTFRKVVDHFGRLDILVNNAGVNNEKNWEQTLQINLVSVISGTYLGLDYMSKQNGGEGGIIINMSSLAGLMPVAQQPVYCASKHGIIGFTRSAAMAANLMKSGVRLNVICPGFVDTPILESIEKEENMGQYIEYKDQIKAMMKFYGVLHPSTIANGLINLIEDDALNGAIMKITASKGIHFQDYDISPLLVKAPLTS", "assay": "15-PGDH enzymatic activity in forebrain after TBI", "settings": "Hpgd+/+ mice, 3 weeks after TBI, 5 mg/kg started 24 hours after injury", "method": "(§1) (A) 8 week old 15-PGDH wild-type (Hpgd^+/+) and 15-PGDH knockout (Hpgd^−/−) mice were subjected to TBI, and brain tissue was dissected 2 weeks later for western blot. […] Individual human data points are shown on the graph. Data was analyzed with Student's t test. * p<0.05. All data is mean±SEM. (C) Hpgd^+/+ mice were subjected to TBI at 8 weeks of age and then brain tissue was dissected 3 weeks later for biochemical determination of 15-PGDH enzymatic activity. […] Individual mouse data points are shown on the graph. Data was analyzed with Student's t test. ** p<0.01, **** p<0.0001. All data is mean±SEM. (D) 5×FAD mice and wild type littermates (WT) were administered either 5 mg/kg/day (+)-SW033291 twice daily (or vehicle) from 2 to 6 months of age, and then brains were dissected for biochemical assessment of 15-PGDH activity. […] Individual mouse data points are shown on the graph. Data was analyzed using two-way repeated measures ANOVA; * p<0.05, ** p<0.01, *** p<0.001. All data is mean±SEM."}, "15-PGDH [2]": {"target": "T1, 15-PGDH", "assay": "15-PGDH activity in whole brain of 5×FAD and WT mice", "settings": "5 mg/kg/day twice daily from 2 to 6 months of age", "method": "as §1"}, "[3]": {"system": "C57/B6 mice exposed to TBI", "assay": "Silver staining for axon degeneration after TBI", "settings": "3 weeks after TBI, 5 mg/kg twice daily started 24 hours after injury", "method": "8 week old C57/B6 mice were exposed to sham-injury or TBI. Twice daily treatment with 5 mg/kg (+)-SW033291, 5 mg/kg (−)-SW033291, or vehicle was started 24 hours after injury and continued throughout the duration of the experiment. Animals were sacrificed by transcardial perfusion 3 weeks after TBI or sham-injury, and fixed brains were processed for silver staining. […] Individual mouse data points are shown on the graph. Data was analyzed using two-way repeated measures ANOVA; * p<0.05, ** p<0.01. All data is mean±SEM."}, "[4]": {"system": "5×FAD and wild type (WT) mice", "assay": "BrdU staining, survival of newborn hippocampal neurons", "settings": "5 mg/kg/day twice daily from 2 to 6 months; for survival of newborn hippocampal neurons (BrdU): 28 days after BrdU", "method": "Two month old 5×FAD and wild type (WT) littermates were treated with 5 mg/kg/day twice daily (+)-SW033291 (or vehicle) every day from 2 to 6 months. At 5 months of age, mice were injected with a single dose of 150 mg/kg bromodeoxyuridine (BrdU) to label replicating cells. At the age of 6 months (28 days after BrdU) mice were transcardially perfused and brains were dissected for examination of fixed tissue. […] Individual mouse data points are shown on the graph. Data was analyzed using two-way repeated measures ANOVA; * p<0.05, ** p<0.01, ***p<0.001, ****p<0.0001. All data is mean±SEM."}, "5×FAD mice": {"system": "5×FAD mice", "assay": "Blood-brain barrier integrity by transmission electron microscopy", "method": "BBB integrity was analyzed using transmission electron microscopy (TEM) in 6 month old 5×FAD mice. […] Mice were treated with 5 mg/kg/day (+)-SW033291 (or vehicle) every day from 2 to 6 months of age, and then sacrificed for TEM analysis. Individual mouse data points are shown on the graph. Data was analyzed using one-way ANOVA; * p<0.05, ** p<0.01, *** p<0.001. All data is mean±SEM."}, "eicosanoids": {"system": "eicosanoids", "assay": "Eicosanoid profiling by LC-MS/MS, right brain hemisphere of wild-type and 5×FAD mice", "settings": "5 mk/kg twice daily for 4 weeks", "method": "Eicosanoids were measured by methods of liquid chromatography with tandem mass spectrometry with the use of spiked in deuterated internal standards. Eicosanoids measured included: the 6-keto-PGF1 alpha (6-keto-PGF1a, a hydrolysis product of and proxy for prostacyclin), thromboxane B2 (TXB2, a metabolite/product of and proxy for thromboxane A2), PGD2, PGE2, 15-keto-PGE2 (produced by 15-PGDH degradation of PGE2), tetranor PGE1 (TN-E, a metabolic product produced by beta-oxidation of PGE2), PGJ2, PGF2 alpha (PGF2a), LTB4, 15-HETE, 12-HETE, 8-HETE, 5-HETE, 17-HDHA, 12,13-DiHOME, 14,15-DHET, 11,12-DHET.\nFIG. 3 illustrates graphs showing comparison of eicosanoid values in brain of 6 month old male mice that are either wild-type or that are the 5×FAD strain of mice that model Alzheimer's disease. Beginning at 5 months of age both genotypes of mice were injected twice daily with either 5 mk/kg (+)-SW033291 or with matched vehicle control as described in Zhang et al. Science. 2015; 348(6240):aaa2340. PMCID: PMC4481126. Treatment continued twice daily for 4 weeks. Mice were sacrificed at 3 hours following their final injection. After sacrifice the right hemisphere of the brain was dissected, flash frozen, and powdered, and eicosanoids were extracted in aqueous buffer for analysis. Protein concentration of the extracts were assayed, and eicosanoid values were recorded as ng eicosanoid per mg protein."}, "[5]": {"settings": "6 month old 5×FAD mice, 5 mg/kg/day from 2 to 6 months of age, TEM"}, "[6]": {"settings": "wild-type mice, compared to vehicle treated wild-type mice"}},
  "note": "“Also recorded” adds a separate entry of the source.",
  "data": [
    {"smiles": "CCCC[S+]([O-])c1sc2nc(-c3cccs3)cc(-c3ccccc3)c2c1N", "note": "(single isomer, unassigned; (+)) [(+)-SW033291]", "values": [
      {"measurement": "15-PGDH enzymatic activity in the forebrain", "setting": "15-PGDH [1]", "result": "restored to normal; also recorded: returned to normal"},
      {"measurement": "15-PGDH activity in the whole brain", "setting": "15-PGDH [2]; 5×FAD mice, compared to 5×FAD vehicle, 5 mg/kg/day", "result": "significantly lowered 15-PGDH activity in the whole brain; also recorded: returned to normal"},
      {"measurement": "15-PGDH activity in the whole brain", "setting": "15-PGDH [2]; WT mice, compared to WT vehicle", "result": "significantly lowered 15-PGDH activity in the whole brain"},
      {"measurement": "silver staining (axon degeneration)", "setting": "[3]; 5 mg/kg", "result": "reduced silver staining equivalent to sham-injury-vehicle"},
      {"measurement": "silver staining (axon degeneration)", "setting": "[3]; listed as (+)-SW033921, 5 mg/kg", "result": "protects wild type mice from axon degeneration after TBI"},
      {"measurement": "survival of young hippocampal neurons relative to WT-vehicle mice", "setting": "[4]; 5×FAD mice", "result": "comparable extent as WT-vehicle mice"},
      {"measurement": "survival of newborn hippocampal neurons (BrdU)", "setting": "[4]; 5×FAD mice, 5 mg/kg/day", "result": "augments the survival of newborn hippocampal neurons"},
      {"measurement": "survival of newborn hippocampal neurons (BrdU)", "setting": "[4]; WT mice", "result": "augments the survival of newborn hippocampal neurons"},
      {"measurement": "blood-brain barrier (BBB) protection", "setting": "5×FAD mice; 5×FAD mice", "result": "protects the blood-brain barrier (BBB) in 5×FAD mice"},
      {"measurement": "disruption of astrocyte end feet that envelope the BBB", "setting": "5×FAD mice; [5]", "result": "prevented this disruption"},
      {"measurement": "enlargement of the perivascular space", "setting": "5×FAD mice; [5]", "result": "prevented this disruption"},
      {"measurement": "eicosanoid values in right hemisphere of the brain (trends)", "setting": "eicosanoids; 5×FAD mice, versus vehicle control treated 5×FAD mice", "result": "a trend to increased 15-keto-PGE2, TN-E, PGF2a, 12,13-DiHOME, and 11,12-DHET"},
      {"measurement": "6-keto-PGF1a, PGE2 in right hemisphere of the brain", "setting": "eicosanoids; [6]", "result": "significant increase in 6-keto-PGF1a, PGE2"},
      {"measurement": "eicosanoid values in right hemisphere of the brain (trends)", "setting": "eicosanoids; [6]", "result": "a trend to increased TXB2, PGD2, 15-keto-PGE2, TN-E, PGJ2, PGF2a, LTB4, 15-HETE, 12-HETE, 8-HETE, 17-HDHA, 9,10-DiHOME, 14,15-DHET"}
    ]}
  ]
}
